# Measured values published in patent US5801016A, “DNA fragment, recombinant vector containing the same and method for expressing foreign genes using the same” (Japan Tobacco Inc., priority 1995, dated 1998).
# Key:
# [1] = biological target: T1, rice (Oryza sativa) bran phospholipase D (PLD), purified fraction Mono Q 2nd-II (Oryza sativa subsp. japonica, UniProt Q43007); test: PLD enzyme activity with phosphatidylcholine as substrate, quantifying the choline generated; type: biochemical; details: eluted solution Mono Q 2nd-II
# T1 construct: bran of rice (Oryza sativa); from tissue; host or cells: rice (Oryza sativa) bran, variety KOSHIHIKARI, purified to Mono Q 2nd-II
# T1 sequence (Q43007 47-812): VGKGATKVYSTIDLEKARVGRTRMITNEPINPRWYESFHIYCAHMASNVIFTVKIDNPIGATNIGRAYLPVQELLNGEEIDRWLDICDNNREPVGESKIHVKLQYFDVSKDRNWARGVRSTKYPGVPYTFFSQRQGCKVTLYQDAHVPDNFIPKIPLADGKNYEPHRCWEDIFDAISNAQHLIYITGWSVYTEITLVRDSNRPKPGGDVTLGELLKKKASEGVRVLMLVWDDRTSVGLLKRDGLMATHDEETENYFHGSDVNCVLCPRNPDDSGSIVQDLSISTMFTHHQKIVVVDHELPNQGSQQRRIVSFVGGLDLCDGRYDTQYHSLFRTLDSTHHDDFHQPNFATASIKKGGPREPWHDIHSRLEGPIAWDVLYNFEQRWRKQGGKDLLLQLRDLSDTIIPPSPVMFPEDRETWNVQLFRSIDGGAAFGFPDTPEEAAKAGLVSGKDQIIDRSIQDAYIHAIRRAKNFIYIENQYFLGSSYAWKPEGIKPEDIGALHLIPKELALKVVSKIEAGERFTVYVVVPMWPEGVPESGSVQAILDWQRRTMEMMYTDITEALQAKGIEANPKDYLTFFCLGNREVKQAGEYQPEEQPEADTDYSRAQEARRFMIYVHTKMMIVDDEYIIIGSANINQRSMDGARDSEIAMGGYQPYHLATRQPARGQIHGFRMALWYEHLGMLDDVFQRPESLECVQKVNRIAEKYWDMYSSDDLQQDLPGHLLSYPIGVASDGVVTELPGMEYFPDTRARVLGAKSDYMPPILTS
# Protocol: (§1) For purification, a reference (Takano et al., Journal of Japan Food Industry Association, 34, 8-13 (1987) was referred. The enzyme activity was measured by employing phosphatidylcholine as a substrate and quantifying the choline generated by the enzyme reaction (Imamura et al., J. Biochem. 83, 677-680 (1978)). It should be noted, however, the enzyme reaction was stopped by heat treatment at 95° C. for 5 minutes.
# (§2) Properties of the enzymes contained in the two fractions were determined. The buffer solutions used for the measurement of the optimum pH were sodium acetate (pH 4-6), MES-NaOH (pH 5.5-7.0) and Tris-HCl (pH 7-9), all of which have a concentration of 100 mM in all of the buffer solutions. The pH stability means the pH range in which decrease in the enzyme activity is not observed after leaving the enzyme at the respective pH at 25° C. for 30 minutes. The temperature stability was measured by measuring the remaining activity after leaving the enzyme to stand at 4° C., 25° C., 37° C. or 50° C. for 30 minutes. The substrate specificity was measured at a substrate concentration of 5 mM and expressed in terms of the relative activity taking the enzyme activity to phosphatidylcholine as 100.
# [2] = biological target: T2, rice (Oryza sativa) bran phospholipase D (PLD), purified fraction Mono Q 2nd-I (Oryza sativa subsp. japonica, UniProt Q43007); test: as above; type: biochemical; details: eluted solution Mono Q 2nd-I
# T2 construct: bran of rice (Oryza sativa); from tissue; host or cells: rice (Oryza sativa) bran, variety KOSHIHIKARI, purified to Mono Q 2nd-I
# T2 sequence (Q43007 47-812): T1 sequence (Q43007 47-812)
# Protocol: as §1, §2
substance,measurement,setting,value
phosphatidylcholine,Km,[1],290 µM
same,Km,[2],290 µM
